Data taken from US6017935A, “7-sulfur substituted paclitaxels” (Bristol-Myers Squibb Company, priority 1998, dated 2000).

System: HCT-116 human colon carcinoma cells
Assay: Cytotoxicity (in vitro) MTS assay in HCT-116 human colon carcinoma cells
Format: cell-based
Conditions: Homo sapiens, HCT-116, 72 h, read-out: IC50 HCT 116, HCT-116 cells, MTS assay, 72 hours at 37° C.; drug concentration required to inhibit cell proliferation to 50% of untreated control
Procedure: Cytoxicity was assessed in HCT-116 human colon carcinoma cells by MTS (3-(4,5-dimethylthiazol-2-yl)-5-(3-carboxymethoxyphenyl)-2-(4-sulphenyl)-2H-tetrazolium, inner salt) assay as reported in T. L. Riss, et al., "Comparison of MTT, XTT, and a novel tetrazolium compound MTS for in vitro proliferation and chemosensitivity assays.", Mol. Biol. Cell 3 (Suppl.):184a, 1992. Cells were plated at 4,000 cell/well in 96 well microtiter plates and 24 hours later drugs were added and serial diluted. The cells were incubated at 37° C. for 72 hours at which time the tetrazolium dye, MTS at 333 μg/ml (final concentration), in combination with the electron coupling agent phenazine methosulfate at 25 μM (final concentration) was added. A dehydrogenase enzyme in live cell reduces the MTS to a form that absorbs light at […] which can be quantitated spectrophotometrically. The greater the absorbance the greater the number of live cells. The results are expressed as an IC50, which is the drug concentration required to inhibit cell proliferation (i.e. absorbance at 450 nm) to 50% of that of untreated control cells.

Structure (SMILES) | IC50 [nM]
CC(=O)O[C@H]1C(=O)[C@]2(C)[C@@H](SC[S+](C)[O-])C[C@H]3OC[C@@]3(OC(C)=O)[C@H]2[C@H](OC(=O)c2ccccc2)[C@]2(O)C[C@H](OC(=O)[C@H](O)[C@@H](NC(=O)c3ccccc3)c3ccccc3)C(C)=C1C2(C)C (stereo partly drawn) [31a&b, 7-deoxy-7β-methylsulfinylmethylthiopaclitaxel] | 6.48
CS[C@@H]1C[C@H]2OC[C@@]2(OC(C)=O)[C@H]2[C@H](OC(=O)c3ccccc3)[C@]3(O)C[C@H](OC(=O)[C@H](O)[C@@H](NC(=O)c4ccccc4)c4ccccc4)C(C)=C([C@@H](OC(C)=O)C(=O)[C@@]21C)C3(C)C [Compound 5a, 7-deoxy-7α-thiomethylpaclitaxel] | 13.1
CC(=O)O[C@H]1C(=O)[C@@]2(C)[C@H]([C@H](OC(=O)c3ccccc3)[C@]3(O)C[C@H](OC(=O)[C@H](O)[C@@H](NC(=O)c4ccccc4)c4ccccc4)C(C)=C1C3(C)C)[C@]1(OC(C)=O)CO[C@@H]1C[C@@H]2S [Compound 14a, 7-deoxy-7β-thiopaclitaxel] | 13.5
COCS[C@H]1C[C@H]2OC[C@@]2(OC(C)=O)[C@H]2[C@H](OC(=O)c3ccccc3)[C@]3(O)C[C@H](OC(=O)[C@H](O)[C@@H](NC(=O)c4ccccc4)c4ccccc4)C(C)=C([C@@H](OC(C)=O)C(=O)[C@]12C)C3(C)C [Compound 16a, 7-deoxy-7β-thiomethoxymethyl paclitaxel] | 0.5
CS[C@H]1C[C@H]2OC[C@@]2(OC(C)=O)[C@H]2[C@H](OC(=O)c3ccccc3)[C@]3(O)C[C@H](OC(=O)[C@H](O)[C@@H](NC(=O)c4ccccc4)c4ccccc4)C(C)=C([C@@H](OC(C)=O)C(=O)[C@]12C)C3(C)C [Compound 18a, 7-deoxy-7β-thiomethylpaclitaxel] | 0.2
CC(=O)O[C@H]1C(=O)[C@]2(C)[C@@H](SCCO)C[C@H]3OC[C@@]3(OC(C)=O)[C@H]2[C@H](OC(=O)c2ccccc2)[C@]2(O)C[C@H](OC(=O)[C@H](O)[C@@H](NC(=O)c3ccccc3)c3ccccc3)C(C)=C1C2(C)C [Compound 20a, 7-deoxy-7β-(2-hydroxethylthio)paclitaxel] | 0.82
CS[C@H]1C[C@H]2OC[C@@]2(OC(C)=O)[C@H]2[C@H](OC(=O)c3ccccc3)[C@]3(O)C[C@H](OC(=O)[C@H](O)[C@@H](NC(=O)OC(C)(C)C)c4ccccc4)C(C)=C([C@@H](OC(C)=O)C(=O)[C@]12C)C3(C)C [Compound 22a, 3'-NH-Boc-7-deoxy-7β-thiomethylpaclitaxel] | 0.3
CCS[C@H]1C[C@H]2OC[C@@]2(OC(C)=O)[C@H]2[C@H](OC(=O)c3ccccc3)[C@]3(O)C[C@H](OC(=O)[C@H](O)[C@@H](NC(=O)c4ccccc4)c4ccccc4)C(C)=C([C@@H](OC(C)=O)C(=O)[C@]12C)C3(C)C [Compound 24a, 7-deoxy-7β-thioethylpaclitaxel] | 4.02
CC(=O)O[C@H]1C(=O)[C@]2(C)[C@@H](SCC#N)C[C@H]3OC[C@@]3(OC(C)=O)[C@H]2[C@H](OC(=O)c2ccccc2)[C@]2(O)C[C@H](OC(=O)[C@H](O)[C@@H](NC(=O)c3ccccc3)c3ccccc3)C(C)=C1C2(C)C [Compound 25a] | < 0.04
C=CS[C@H]1C[C@H]2OC[C@@]2(OC(C)=O)[C@H]2[C@H](OC(=O)c3ccccc3)[C@]3(O)C[C@H](OC(=O)[C@H](O)[C@@H](NC(=O)c4ccccc4)c4ccccc4)C(C)=C([C@@H](OC(C)=O)C(=O)[C@]12C)C3(C)C [Compound 27a, 7-deoxy-7β-thiovinylpaclitaxel] | 1.2
CC(=O)O[C@H]1C(=O)[C@]2(C)[C@@H](SC#N)C[C@H]3OC[C@@]3(OC(C)=O)[C@H]2[C@H](OC(=O)c2ccccc2)[C@]2(O)C[C@H](OC(=O)[C@H](O)[C@@H](NC(=O)c3ccccc3)c3ccccc3)C(C)=C1C2(C)C [Compound 28a, 7-deoxy-7β-thiocyanatopaclitaxel] | 1.8
CC(=O)O[C@H]1C(=O)[C@]2(C)[C@@H](SCc3ccccn3)C[C@H]3OC[C@@]3(OC(C)=O)[C@H]2[C@H](OC(=O)c2ccccc2)[C@]2(O)C[C@H](OC(=O)[C@H](O)[C@@H](NC(=O)c3ccccc3)c3ccccc3)C(C)=C1C2(C)C [Compound 30a, 7-deoxy-7β-(thio-2-picolyl)-paclitaxel] | 1.12
COC(=O)/C=C/S[C@H]1C[C@H]2OC[C@@]2(OC(C)=O)[C@H]2[C@H](OC(=O)c3ccccc3)[C@]3(O)C[C@H](OC(=O)[C@H](O)[C@@H](NC(=O)c4ccccc4)c4ccccc4)C(C)=C([C@@H](OC(C)=O)C(=O)[C@]12C)C3(C)C [Compound 34a, 7-deoxy-7β-thio-(3-methylacrylate)paclitaxel] | 6.97
COC(=O)/C=C\S[C@H]1C[C@H]2OC[C@@]2(OC(C)=O)[C@H]2[C@H](OC(=O)c3ccccc3)[C@]3(O)C[C@H](OC(=O)[C@H](O)[C@@H](NC(=O)c4ccccc4)c4ccccc4)C(C)=C([C@@H](OC(C)=O)C(=O)[C@]12C)C3(C)C [Compound 35a, 7-deoxy-7β-thio-(3-methylacrylate)paclitaxel] | 1.76
CC(=O)O[C@H]1C(=O)[C@@]2(C)[C@H]([C@H](OC(=O)c3ccccc3)[C@]3(O)C[C@H](OC(=O)[C@H](O)[C@@H](NC(=O)c4ccccc4)c4ccccc4)C(C)=C1C3(C)C)[C@]1(OC(C)=O)CO[C@@H]1C[C@@H]2O [paclitaxel] | 1.71 to 2.28

Same assay, conditions: Homo sapiens; HCT-116 cells, MTS assay, 72 hours at 37° C.; drug concentration required to inhibit cell proliferation to 50% of untreated control; read-out: IC50 HCT 116

Structure (SMILES) | IC50 [nM]
CC(=O)O[C@H]1C(=O)[C@@]2(C)[C@H]([C@H](OC(=O)c3ccccc3)[C@]3(O)C[C@H](OC(=O)[C@H](O)[C@@H](NC(=O)c4ccccc4)c4ccccc4)C(C)=C1C3(C)C)[C@]1(OC(C)=O)CO[C@@H]1C[C@H]2S(C)(=O)=O [Compound 7a, 7-deoxy-7α-methylsulfonylpaclitaxel] | 72.3
CC(=O)O[C@@H]1C2=C(C)[C@@H](OC(=O)[C@H](O)[C@@H](NC(=O)c3ccccc3)c3ccccc3)C[C@@](O)([C@@H](OC(=O)c3ccccc3)[C@@H]3[C@]4(OC(C)=O)CO[C@@H]4C[C@@H]4[C@@]3(C)C1(O)CS4(=O)=O)C2(C)C (stereo partly drawn) [Compound 9a] | 2.99

Same assay, conditions: read-out: IC50 HCT 116; HCT-116 cells, MTS assay, 72 hours at 37° C.; drug concentration required to inhibit cell proliferation to 50% of untreated control

Structure (SMILES) | IC50 [nM]
CC(=O)O[C@H]1C(=O)[C@]2(C)[C@@H]([S+](C)[O-])C[C@H]3OC[C@@]3(OC(C)=O)[C@H]2[C@H](OC(=O)c2ccccc2)[C@]2(O)C[C@H](OC(=O)[C@H](O)[C@@H](NC(=O)c3ccccc3)c3ccccc3)C(C)=C1C2(C)C (single isomer, unassigned) [Compound 29a, 7-deoxy-7β-methylsulfinyl-paclitaxel] | 3.99
CC(=O)O[C@H]1C(=O)[C@]2(C)[C@@H]([S+](C)[O-])C[C@H]3OC[C@@]3(OC(C)=O)[C@H]2[C@H](OC(=O)c2ccccc2)[C@]2(O)C[C@H](OC(=O)[C@H](O)[C@@H](NC(=O)c3ccccc3)c3ccccc3)C(C)=C1C2(C)C (single isomer, unassigned) [Compound 29b, 7-deoxy-7β-methylsulfinyl-paclitaxel] | 12.1

System: not given
Assay: not given
Conditions: background statement; cited from earlier work

Structure (SMILES) | antitumor activity in in vivo animal models
CC(=O)O[C@H]1C(=O)[C@@]2(C)[C@H]([C@H](OC(=O)c3ccccc3)[C@]3(O)C[C@H](OC(=O)[C@H](O)[C@@H](NC(=O)c4ccccc4)c4ccccc4)C(C)=C1C3(C)C)[C@]1(OC(C)=O)CO[C@@H]1C[C@@H]2O [paclitaxel] | excellent antitumor activity

System: not given
Assay: not given
Conditions: background statement; cited from earlier work
Remark: another data set of the same source

Structure (SMILES) | antitumor activity
CC(=O)O[C@@]12CO[C@@H]1C[C@H](O)[C@@]1(C)C(=O)[C@H](O)C3=C(C)[C@@H](OC(=O)[C@H](O)[C@@H](NC(=O)OC(C)(C)C)c4ccccc4)C[C@@](O)([C@@H](OC(=O)c4ccccc4)[C@H]21)C3(C)C [docetaxel] | good antitumor activity
